The subject of test [1] is vertebrate calcium channels. The conditions noted are these: cited from earlier work.
For test [2], the system named is invertebrate calcium channels. The conditions noted are these: cited from earlier work.
Test [3] concerns Spodoptera sp. Conditions: native PI1a, literature value; cited from earlier work.
The subject of test [4] is Mamestra brassicae larvae. The test can be described thus: Droplet-feeding (oral) assay with Mamestra brassicae larvae. It counts as in vivo. As to the method:
Droplet-feeding assays were carried out to assess the oral activity of Hv1a/GNA, pro-Hv1a/GNA, PI1a, Ao1bProPI1a, PI1a/GNA, Ao1bPro-PI1a/GNA, or Hv1aPro-PI1a/GNA towards third to fifth instar larvae of M. brassicae. Larvae were starved for approximately 24 h before feeding in order to encourage droplet consumption. Larvae were fed with a 2 μl droplet containing 20 μg of the above fusion proteins, 30 μg of toxins or 30 μg of GNA, in 1×PBS solution containing 10% sucrose (w/w). Control larvae were fed on PBS/sucrose droplets containing no added protein. Treated larvae were placed on standard artificial diet after consumption of the droplet.

For test [5], the system named is Mamestra brassicae larvae. The test can be described thus: Injection bioassay with Mamestra brassicae larvae. Conditions: injection at up to 40 μg/insect. It is filed as in vivo. How it is done: 3rd-5th instar Mamestra brassicae larvae (approximately 30-55 mg in weight) were used for injection bioassays. Larvae were injected with varying doses of Hv1a, pro-Hv1a, pro-Hv1a/GNA, PI1a, Ao1bProPI1a, PI1a/GNA, Ao1bPro-PI1a/GNA, or Hv1aPro-PI1a/GNA (n=20 per dose) in 5 μl of PBS (phosphate buffered saline; 0.15 M NaCl, 0.015 M sodium-phosphate buffer, pH 7.2). Larvae for controls were injected with 5 μl 1×PBS. Paralysis and mortality was recorded 12-96 h after injection.

In the case of ω-ACTX-Hv1a [Hv1a (literature)], the “block of vertebrate calcium channels” value in test [1] is “not vertebrate”. The “block of invertebrate calcium channels” value in test [2] is “block invertebrate”.
For “δ-amaurobitoxin-PI1a [Pl1a (literature)]”, in test [3], the LD50 is 9.5 µg/g.
As to snowdrop lectin (GNA), the reductions in survival in test [4] (30 μg control treatments, 3rd stadium) is 0-20%. In test [4] (single 2 μl droplet containing 20 μg, third instar), the “mortality after 5 days” value was found to be 20%. Moreover, the mortality result in test [5] is on record as “do not result in mortality”.
